Reference: patent US8298328B2, “Amorphous metal salt for facilitating the handling property of portland cements and dental applications thereof” (Taipei Medical University, priority 2008, dated 2012)

What was measured:
[1] = Water solubility of the divalent metal salt powder; settings: 25° C., dried powder
[2] = Crystal form by wide-angle X-ray diffraction (XRD); type: physicochemical; settings: XRD of powder
Procedure: The crystal form of the CLG powder prepared above is determined by wide-angle x-ray diffraction (XRD). First, 1.00 g of CLG powder was placed in a sample carrier, and the powder filling was pressed by a slide. Then, the sample was placed on an X-ray diffractometer (MaxRC, Rigaku, Japan), and X-ray diffraction was performed by using Kα radiation (λ=1.541838A) at scan rate of 10°/min and 20 scanning angle from 5° to 60°. The peaks of X-ray diffraction data were analyzed in accordance with the Joint Committee on Powder Diffraction Standards (JCPDS).

[3] = filtrate after reaction with CaO, before drying
Procedure: After mixing and stirring for 1 hour, the solution was filtered, and the filtrate was collected.

Row | Compound | Solubility (water solubility) [1] | Crystal form [2] | pH value of the filtrate solution [3] | other results
1 | CC(O)C(=O)[O-].O=C([O-])[C@H](O)[C@@H](O)[C@H](O)[C@H](O)CO.[Ca+2] [Example 1, Calcium Lactate Gluconate] | 35.7~41.0 g/100 ml | Amorphous | 9.8 | Solubility (water solubility) ([1]; listed as CLG): 35.7˜41.0 g/100 ml; Crystal form ([2]; listed as CLG): amorphous
2 | CC(O)C(=O)[O-].CC(O)C(=O)[O-].[Ca+2] (stereo not drawn) [Comparative Example 3, Calcium Lactate, reference compound] |  | Crystalline |  | Crystal form ([2]; listed as CL): crystalline
3 | Calcium Gluconate [Comparative Example 2, reference compound] |  | Crystalline |  | Crystal form ([2]; listed as CG): crystalline
4 | O=C([O-])[C@H](O)[C@@H](O)[C@H](O)[C@H](O)CO.O=S(=O)([O-])O.[Ca+2] [Example 3, Calcium Sulfate Gluconate] | 30.1~31.7 g/100 ml | Amorphous | 9.3 | Solubility (water solubility) ([1]; listed as CSG): 30.1˜31.7 g/100 ml; Crystal form ([2]; listed as CSG): amorphous
5 | Calcium Lactate Sulfate [Example 2] |  | Amorphous | 9.7 | Crystal form ([2]; listed as CLS): amorphous
6 | O.O.O=S(=O)([O-])[O-].[Ca+2] [Comparative Example 1, Calcium Sulfate Dehydrate, reference compound] |  | Crystalline |  | 
